Results: PubChem BioAssay (NCI)
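Test compounds were applied to cells in 96-well plates for 48 hours at 5 doses. Definition used: TGI = concentration required for complete inhibition of growth.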

Assays:
Experiment in all cases: growth of human tumour cells (NCI), 48 h
[1] = system: SNB-19 CNS
[2] = system: A498 renal
[3] = system: ACHN renal
[4] = system: KM20L2 colon
[5] = system: CCRF-CEM leukemia
[6] = system: OVCAR-5 ovarian
[7] = system: OVCAR-8 ovarian
[8] = system: HCC-2998 colon
[9] = system: NCI-H23 lung
[10] = system: HCT-116 colon
[11] = system: SNB-78 CNS
[12] = system: SW-620 colon
[13] = system: DLD-1 colon
[14] = system: RPMI-8226 leukemia
[15] = system: A549 NSCLC
[16] = system: HOP-62 NSCLC
[17] = system: HCT-15 colon
[18] = system: SF-295 CNS
[19] = system: SF-539 CNS
[20] = system: OVCAR-3 ovarian
[21] = system: NCI-H460 lung
[22] = system: TK-10 renal
[23] = system: SK-MEL-5 melanoma
[24] = system: SK-MEL-28 melanoma
[25] = system: M19-MEL melanoma
[26] = system: SK-OV-3 ovarian
[27] = system: UO-31 renal
[28] = system: SF-268 CNS
[29] = system: M14 melanoma
[30] = system: HT29 colon
[31] = system: CAKI-1 renal
[32] = system: UACC-62 melanoma
[33] = system: XF 498 CNS
[34] = system: U251 CNS
[35] = system: DMS 114 small cell lung
[36] = system: UACC-257 melanoma
[37] = system: KM12 colon
[38] = system: K-562 leukemia
[39] = system: SNB-75 CNS
[40] = system: SK-MEL-2 melanoma
[41] = system: MALME-3M melanoma
[42] = system: NCI-H522 lung
[43] = system: SN12C renal
[44] = system: OVCAR-4 ovarian
[45] = system: COLO 205 colon
[46] = system: IGROV1 ovarian
[47] = system: EKVX NSCLC
[48] = system: LXFL 529 NSCLC
[49] = system: MOLT-4 leukemia
[50] = system: 786-0 renal
[51] = system: HL-60(TB) leukemia
[52] = system: RXF 393 renal
[53] = system: NCI-H226 lung
[54] = system: LOX IMVI melanoma
[55] = system: DMS 273 small cell lung
[56] = system: SR leukemia

Question: For `COc1ccc(Cc2nccc3cc(OC)c(OC)cc23)cc1`, which TGI [1] is on record?
Answer: Its TGI is greater than 100 µM.

Question: What about the TGI [2] of the same compound?
Answer: The TGI was greater than 100 µM.

Question: And the TGI [3]?
Answer: Its TGI is greater than 100 µM.

Question: What about the TGI [4] of the same compound?
Answer: The TGI was greater than 100 µM.

Question: And the TGI [5]?
Answer: The TGI was greater than 100 µM.

Question: And the TGI [6]?
Answer: The TGI was greater than 100 µM.

Question: What about the TGI [7] of the same compound?
Answer: The TGI was greater than 100 µM.

Question: What about the TGI [8] of the same compound?
Answer: The TGI was greater than 100 µM.

Question: And the TGI [9]?
Answer: The TGI was greater than 100 µM.

Question: What about the TGI [10] of the same compound?
Answer: The TGI was greater than 100 µM.

Question: What about the TGI [11] of the same compound?
Answer: The TGI was greater than 100 µM.

Question: What about the TGI [12] of the same compound?
Answer: The TGI was greater than 100 µM.

Question: What about the TGI [13] of the same compound?
Answer: The TGI was greater than 100 µM.

Question: And the TGI [14]?
Answer: Its TGI is greater than 100 µM.

Question: And the TGI [15]?
Answer: Its TGI is greater than 100 µM.

Question: And the TGI [16]?
Answer: The TGI was greater than 100 µM.

Question: And the TGI [17]?
Answer: Its TGI is greater than 100 µM.

Question: What about the TGI [18] of the same compound?
Answer: Its TGI is greater than 100 µM.

Question: What about the TGI [19] of the same compound?
Answer: Its TGI is greater than 100 µM.

Question: And the TGI [20]?
Answer: The TGI was greater than 100 µM.

Question: What about the TGI [21] of the same compound?
Answer: The TGI was greater than 100 µM.

Question: What about the TGI [22] of the same compound?
Answer: The TGI was greater than 100 µM.

Question: What about the TGI [23] of the same compound?
Answer: Its TGI is greater than 100 µM.

Question: What about the TGI [24] of the same compound?
Answer: Its TGI is greater than 100 µM.

Question: What about the TGI [25] of the same compound?
Answer: The TGI was greater than 100 µM.

Question: And the TGI [26]?
Answer: The TGI was greater than 100 µM.

Question: And the TGI [27]?
Answer: The TGI was 90.8 µM.

Question: What about the TGI [28] of the same compound?
Answer: The TGI was greater than 100 µM.

Question: And the TGI [29]?
Answer: The TGI was greater than 100 µM.

Question: And the TGI [30]?
Answer: The TGI was greater than 100 µM.

Question: What about the TGI [31] of the same compound?
Answer: Its TGI is greater than 100 µM.

Question: What about the TGI [32] of the same compound?
Answer: Its TGI is greater than 100 µM.

Question: What about the TGI [33] of the same compound?
Answer: Its TGI is 83.6 µM.

Question: And the TGI [34]?
Answer: The TGI was greater than 100 µM.

Question: What about the TGI [35] of the same compound?
Answer: Its TGI is greater than 100 µM.

Question: What about the TGI [36] of the same compound?
Answer: Its TGI is 62.2 µM.

Question: And the TGI [37]?
Answer: Its TGI is greater than 100 µM.

Question: What about the TGI [38] of the same compound?
Answer: Its TGI is greater than 100 µM.

Question: What about the TGI [39] of the same compound?
Answer: The TGI was greater than 100 µM.

Question: What about the TGI [40] of the same compound?
Answer: Its TGI is greater than 100 µM.

Question: What about the TGI [41] of the same compound?
Answer: The TGI was greater than 100 µM.

Question: What about the TGI [42] of the same compound?
Answer: The TGI was greater than 100 µM.

Question: And the TGI [43]?
Answer: The TGI was greater than 100 µM.

Question: What about the TGI [44] of the same compound?
Answer: The TGI was greater than 100 µM.

Question: And the TGI [45]?
Answer: Its TGI is greater than 100 µM.

Question: And the TGI [46]?
Answer: Its TGI is greater than 100 µM.

Question: And the TGI [47]?
Answer: The TGI was greater than 100 µM.

Question: What about the TGI [48] of the same compound?
Answer: Its TGI is greater than 100 µM.

Question: What about the TGI [49] of the same compound?
Answer: The TGI was greater than 100 µM.

Question: What about the TGI [50] of the same compound?
Answer: Its TGI is greater than 100 µM.

Question: What does the source list for `FC(F)(F)c1cccc(C=NC23CC4CC(CC(C4)C2)C3)c1`?
Answer: TGI [1]: > 100 µM; TGI [2]: > 100 µM; TGI [3]: > 100 µM; TGI [4]: > 100 µM; TGI [6]: > 100 µM; TGI [7]: > 100 µM; TGI [51]: > 100 µM; TGI [8]: > 100 µM; TGI [9]: > 100 µM; TGI [10]: > 100 µM; TGI [52]: > 100 µM; TGI [11]: > 100 µM; TGI [12]: > 100 µM; TGI [14]: > 100 µM; TGI [15]: > 100 µM; TGI [16]: > 100 µM; TGI [17]: > 100 µM; TGI [18]: > 100 µM; TGI [19]: > 100 µM; TGI [20]: > 100 µM; TGI [21]: > 100 µM; TGI [53]: > 100 µM; TGI [22]: > 100 µM; TGI [23]: > 100 µM; TGI [24]: > 100 µM; TGI [25]: > 100 µM; TGI [26]: > 100 µM; TGI [27]: > 100 µM; TGI [28]: > 100 µM; TGI [29]: > 100 µM; TGI [30]: > 100 µM; TGI [31]: > 100 µM; TGI [33]: > 100 µM; TGI [34]: > 100 µM; TGI [54]: > 100 µM; TGI [55]: > 100 µM; TGI [35]: > 100 µM; TGI [36]: > 100 µM; TGI [37]: > 100 µM; TGI [56]: > 100 µM; TGI [38]: > 100 µM; TGI [39]: > 100 µM; TGI [40]: > 100 µM; TGI [41]: > 100 µM; TGI [43]: > 100 µM; TGI [44]: > 100 µM; TGI [45]: > 100 µM; TGI [46]: > 100 µM; TGI [47]: > 100 µM; TGI [49]: > 100 µM; TGI [50]: > 100 µM

Question: Which TGI [1] does the source give for `N#CNC1=NC(Cc2ccccc2)C(=O)N1CCc1c[nH]c2ccccc12` (stereo unspecified) here?
Answer: Its TGI is greater than 100 µM.

Question: What about the TGI [5] of the same compound?
Answer: Its TGI is 74.6 µM.

Question: What about the TGI [7] of the same compound?
Answer: Its TGI is greater than 100 µM.

Question: What about the TGI [51] of the same compound?
Answer: Its TGI is 60.5 µM.

Question: And the TGI [8]?
Answer: Its TGI is 48.6 µM.

Question: What about the TGI [9] of the same compound?
Answer: The TGI was greater than 100 µM.

Question: And the TGI [10]?
Answer: The TGI was 50.4 µM.

Question: And the TGI [11]?
Answer: Its TGI is 63 µM.

Question: And the TGI [12]?
Answer: The TGI was greater than 100 µM.

Question: What about the TGI [13] of the same compound?
Answer: The TGI was greater than 100 µM.

Question: And the TGI [14]?
Answer: Its TGI is greater than 100 µM.

Question: And the TGI [15]?
Answer: The TGI was greater than 100 µM.

Question: And the TGI [16]?
Answer: Its TGI is 92.1 µM.

Question: And the TGI [17]?
Answer: The TGI was greater than 100 µM.

Question: And the TGI [18]?
Answer: Its TGI is greater than 100 µM.

Question: And the TGI [19]?
Answer: Its TGI is 83.2 µM.

Question: What about the TGI [20] of the same compound?
Answer: Its TGI is greater than 100 µM.

Question: And the TGI [53]?
Answer: The TGI was greater than 100 µM.

Question: What about the TGI [22] of the same compound?
Answer: The TGI was 89.9 µM.

Question: And the TGI [23]?
Answer: The TGI was 41.7 µM.

Question: What about the TGI [24] of the same compound?
Answer: Its TGI is 67.8 µM.

Question: What about the TGI [25] of the same compound?
Answer: Its TGI is 92.4 µM.

Question: What about the TGI [26] of the same compound?
Answer: The TGI was 80.2 µM.

Question: What about the TGI [27] of the same compound?
Answer: The TGI was 64.5 µM.

Question: And the TGI [28]?
Answer: Its TGI is 83.5 µM.

Question: And the TGI [29]?
Answer: The TGI was greater than 100 µM.

Question: And the TGI [30]?
Answer: Its TGI is greater than 100 µM.

Question: What about the TGI [32] of the same compound?
Answer: The TGI was 86 µM.

Question: And the TGI [33]?
Answer: The TGI was 68.4 µM.

Question: What about the TGI [54] of the same compound?
Answer: Its TGI is greater than 100 µM.

Question: What about the TGI [55] of the same compound?
Answer: Its TGI is greater than 100 µM.

Question: And the TGI [35]?
Answer: Its TGI is 91.9 µM.

Question: What about the TGI [36] of the same compound?
Answer: The TGI was greater than 100 µM.

Question: And the TGI [37]?
Answer: The TGI was greater than 100 µM.

Question: And the TGI [56]?
Answer: The TGI was greater than 100 µM.

Question: What about the TGI [38] of the same compound?
Answer: The TGI was greater than 100 µM.

Question: What about the TGI [39] of the same compound?
Answer: The TGI was 33.2 µM.

Question: And the TGI [43]?
Answer: The TGI was greater than 100 µM.

Question: What about the TGI [44] of the same compound?
Answer: The TGI was greater than 100 µM.

Question: What about the TGI [45] of the same compound?
Answer: Its TGI is 43.6 µM.

Question: What about the TGI [46] of the same compound?
Answer: The TGI was greater than 100 µM.

Question: And the TGI [47]?
Answer: Its TGI is 81.5 µM.

Question: And the TGI [48]?
Answer: The TGI was greater than 100 µM.

Question: What about the TGI [49] of the same compound?
Answer: The TGI was 58.3 µM.

Question: And the TGI [50]?
Answer: The TGI was 42.1 µM.
